Reference: paper PMC10954796, “Post-translational modifications of beta-amyloid alter its transport in the blood-brain barrier in vitro model” (Frontiers in Molecular Neuroscience, 2024)
Ends that are not written are not given here.

Target: T1, sRAGE (Homo sapiens, UniProt Q15109)
T1 construct: the soluble extracellular part of RAGE (sRAGE); purchased Abcam
Experiment: Microscale thermophoresis, interaction with sRAGE
Assay type: binding
Details: MST, Monolith NT.115; 50 nM RED-tris-NTA-labeled His-tag sRAGE; peptide 6.1 nM to 200 μM; 4% DMSO, 20% glycerol; mean ± SD, n = 4–5; read-out: dissociation constant (Kd) with sRAGE

T1 sequence (Q15109 23-342 limits assumed): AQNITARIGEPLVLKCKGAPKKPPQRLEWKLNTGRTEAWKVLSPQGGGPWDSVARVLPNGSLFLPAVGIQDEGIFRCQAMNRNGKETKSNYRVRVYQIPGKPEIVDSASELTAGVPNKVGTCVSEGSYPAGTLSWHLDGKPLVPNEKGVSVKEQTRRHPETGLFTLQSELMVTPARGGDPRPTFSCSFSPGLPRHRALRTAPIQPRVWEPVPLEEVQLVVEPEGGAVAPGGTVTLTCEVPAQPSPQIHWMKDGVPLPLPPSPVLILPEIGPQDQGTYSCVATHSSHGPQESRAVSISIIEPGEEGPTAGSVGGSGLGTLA

For LVFFAEDVGSNKGAIIGLMVGGVVIA [Aβ17 − 42], the Kd was 10 ± 5 µM.
